Measured values: patent US4845123A, “Reduction in vivo of the inappropriate levels of endogenous and environmental-derived compounds by sustained-release inhibitors of β- g” (priority 1985, dated 1989)
“Also recorded” adds a separate entry of the source.

Columns and labels:
[1] = in vivo; cited from earlier work
β-glucuronidase = conditions: cited from earlier work
bladder tumors = conditions: human, in vivo; cited from earlier work
bladder tumor = conditions: rat, in vivo; cited from earlier work
bladder cancer = conditions: dog, in vivo; cited from earlier work
serum β-glucuronidase = molecular target: T1, serum β-glucuronidase (Rattus norvegicus, UniProt P06760); assay: in vivo; format: in vivo; conditions: rat, in vivo
T1 sequence (P06760 23-648): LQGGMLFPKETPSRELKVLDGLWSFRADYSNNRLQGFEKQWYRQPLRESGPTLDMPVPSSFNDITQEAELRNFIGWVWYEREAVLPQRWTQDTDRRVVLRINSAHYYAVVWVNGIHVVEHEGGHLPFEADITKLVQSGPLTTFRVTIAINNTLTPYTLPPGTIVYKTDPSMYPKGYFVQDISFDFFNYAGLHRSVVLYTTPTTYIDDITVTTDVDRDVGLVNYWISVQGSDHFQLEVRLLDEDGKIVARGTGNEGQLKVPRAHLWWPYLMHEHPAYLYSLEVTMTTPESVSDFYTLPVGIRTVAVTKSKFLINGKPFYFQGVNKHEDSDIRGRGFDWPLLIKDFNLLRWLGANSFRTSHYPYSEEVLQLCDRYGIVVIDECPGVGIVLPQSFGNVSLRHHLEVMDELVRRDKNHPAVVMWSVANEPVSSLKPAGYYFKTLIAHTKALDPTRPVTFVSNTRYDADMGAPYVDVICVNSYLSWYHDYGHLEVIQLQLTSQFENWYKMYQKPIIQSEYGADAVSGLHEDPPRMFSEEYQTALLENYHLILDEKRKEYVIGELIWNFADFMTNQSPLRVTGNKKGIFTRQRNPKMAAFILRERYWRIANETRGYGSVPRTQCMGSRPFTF
Procedure: GL was synthesized and microencapsulated to give sustained-release GL (EGL), by an established procedure used to microencapsulate ascorbic acid, as reported in Samejima, M. et al., Chem. Pharm. Bull., (Tokyo) 1982, 30:2894-2899. In this procedure, the GL as a fine powder is added to a stirred mixture of cyclohexane, polyisobutylene as coacervation-inducing agent and ethylcellulose as wall-forming material. The addition of GL is at 78° C., then phase separation is induced by lowering the temperature first to 40° C., then to 25° C. The microcapsules, which have thick walls, are washed with cyclohexane and dried. […] DAGDL, calcium D-glucarate (CGT), and potassium hydrogen D-glucarate (PGT) were synthesized. For comparison of efficacy of the inhibitors, 1,5 mmoles/kg (GL, EGL or DAGDL) or 4.5 mmoles/kg (CGT or PGT) of the inhibitor in 1.0 ml of sesame oil or vehicle only (controls) was administered to rats by stomach tube at zero time. Blood samples were obtained from different rats by cardiac puncture under ether anesthesia. The serum was prepared and assayed for β-glucuronidase activity using a commerical diagnostic kit sold by Sigma Chemical Company, St. Louis, MO. The assay is based on the hydrolysis of phenolphthalein-glucuronide and quantitation of phenolphthalein in alkaline medium at […]. For tests of anti-carcinogencity, the inhibitors were administered by stomach tube in 1.0 ml of sesame oil 30 minutes before and again at 2.5 hours after the carcinogen, for DAGDL, or 3 hours and 30 minutes before the carcinogen, for EGL, CGT, and PGT. The controls received sesame oil only by stomach tube.
At the time periods indicated above blood samples were obtained from rats under ether aneathesia by cardiac puncture, the serum was then prepared and assayed for β-glucuronidase activity using a commercial diagnostic kit sold by Sigma Chem. Co., St. Louis, MO.
For the inhibition of the initiation stage, CGT was given by gavage in two doses (4.5 mmoles/kg/dose) at 3 hours and again at 0.5 hours before carcinogen administration. […] The concentrations of CGT were incorporated into the powdered chow diet. The blood samples were obtained 10 days after the initiation of the CGT feeding.
DAGDL or GL (1.5 mmol/kg) in 1.0 ml of sesame oil, or vehicle only (controls) was administered to rats by stomach tube at zero time. […] The serum was prepared and assayed for β-glucuronidase activity using a commercial diagnostic kit sold by Sigma Chemical Company, St. Louis, MO. The assay is based on the hydrolysis of phenolphthalein-glucuronide and quantitation of phenolphtalein in alkaline medium at 550 nm.

60 kd oncofetal protein [2] = conditions: rat, in vivo; for Plasma concentration of the 60 kd protein at 21 days post-treatment with PAH: ip
60 kd oncofetal protein [3] = assay: effect of β-glucuronidase inhibitors on carcinogen induction of the 60 kd factor in plasma (cell-free RNA transport assay); format: in vivo, rat; conditions: rat, in vivo
[4] = rat, in vivo, iv, cited from earlier work
[5] = equilibrated aqueous solution; cited from earlier work

Compound: O=C(O)[C@@H](O)[C@H]1OC(=O)[C@H](O)[C@H]1O [GL, D-glucaro-1,4-lactone, reference compound]
- administered compound excreted unchanged in urine [1]: less than 50%
- rate of metabolism and excretion [1]: rapidly metabolized
- inhibition of β-glucuronidase in vitro (β-glucuronidase): potent inhibitor
- clinical effect in prevention of bladder tumors (bladder tumors): failed to show any clear beneficial effects
- effect on 2-acetylaminofluorene carcinogenesis (bladder tumor): unsuccessful
- prevention of bladder cancer induced with 2-naphthylamine (bladder cancer): without any success
- depression of serum β-glucuronidase (serum β-glucuronidase): approximately 50%
- reversibility of inhibition by prolonged dialysis (serum β-glucuronidase): could be reversed
- time-course of serum β-glucuronidase inhibition (serum β-glucuronidase): only a transient inhibition; also recorded: transient nature of the inhibition

Compound: Cc1ccc2cc3c(ccc4ccccc43)c3c2c1CC3 [3-Methylcholanthrene, 3-methyl-1,2-dihydrobenz[j]aceanthrylene]
- Treatment -I: total concentration of 60 kd factor induced by the carcinogen (60 kd oncofetal protein [2]): 5.62
- Plasma concentration of the 60 kd protein at 21 days post-treatment with PAH (60 kd oncofetal protein [2]): 6.82
- overall inhibition of PAH-mediated carcinogenesis, as inhibition of 60 kd oncofetal protein induction (60 kd oncofetal protein [3]): 50%

Compound: CN(N=O)C(N)=O [N--Nitrosomethylurea, N-nitroso-N-methylurea]
- 60 kd factor in plasma, MNU without inhibitor (60 kd oncofetal protein [2]): 4.6
- Treatment -I: total concentration of 60 kd factor induced by the carcinogen (60 kd oncofetal protein [2]): 4.69

Compound: CCN(CC)N=O [N--Nitrosodiethylamine, N-nitroso-N, N-diethylamine]
- Treatment -I: total concentration of 60 kd factor induced by the carcinogen (60 kd oncofetal protein [2]): 4.21

Compound: COc1cc2c(c3oc(=O)c4c(c13)CCOC4=O)[C@@H]1CCO[C@@H]1O2 [Aflatoxin G2, aflatoxin G2]
- Treatment -I: total concentration of 60 kd factor induced by the carcinogen (60 kd oncofetal protein [2]): 3.80

Compound: c1ccc2cc3c(ccc4ccccc43)cc2c1 [Benz[a]anthracene]
- Plasma concentration of the 60 kd protein at 21 days post-treatment with PAH (60 kd oncofetal protein [2]): 4.92

Compound: O=C(O)[C@@H](O)[C@@H](O)[C@H](O)[C@@H](O)C(=O)[O-].[K+] [PGT, potassium hydrogen D-glucarate]
- Percent Inhibition of the induction of the 60 kd factor (60 kd oncofetal protein [3]): 65%
- Treatment +I: total concentration of 60 kd factor (60 kd oncofetal protein [3]): 2.25
- time-course of serum β-glucuronidase inhibition (serum β-glucuronidase): prolonged inhibition

Compound: O=[N+]([O-])c1ccc2ccc3cccc4ccc1c2c34 [1-Nitropyrene, reference compound]
- Plasma concentration of the 60 kd protein at 21 days post-treatment with PAH (60 kd oncofetal protein [2]): 5.30 units
- overall inhibition of PAH-mediated carcinogenesis, as inhibition of 60 kd oncofetal protein induction (60 kd oncofetal protein [3]): 50%

Compound: CNNC [1,2-Dimethylhydrazine, 1,2-dimethylhydrazine]
- Treatment -I: total concentration of 60 kd factor induced by the carcinogen (60 kd oncofetal protein [2]): 5.40

Compound: CN(C)N=O [N--Nitrosodimethylamine, N-nitroso-N,N-dimethylamine]
- Treatment -I: total concentration of 60 kd factor induced by the carcinogen (60 kd oncofetal protein [2]): 3.40

Compound: COc1cc2c(c3oc(=O)c4c(c13)CCC4=O)[C@@H]1C=CO[C@@H]1O2 [Aflatoxin B1, aflatoxin B1]
- Treatment -I: total concentration of 60 kd factor induced by the carcinogen (60 kd oncofetal protein [2]): 4.37

Compound: c1ccc2c(c1)c1cccc3ccc4cccc2c4c31 [Benzo[e]pyrene]
- Plasma concentration of the 60 kd protein at 21 days post-treatment with PAH (60 kd oncofetal protein [2]): 3.37

Compound: Cc1c2ccccc2c(C)c2c1ccc1ccccc12 [7,12-Dimethylbenz[a]anthracene, 7,12-dimethylbenz[a]anthracene]
- Plasma concentration of the 60 kd protein at 21 days post-treatment with PAH (60 kd oncofetal protein [2]): 6.42
- overall inhibition of PAH-mediated carcinogenesis, as inhibition of 60 kd oncofetal protein induction (60 kd oncofetal protein [3]): 75%

Compound: c1ccc2c(c1)Cc1ccccc1-2 [Fluorene]
- Plasma concentration of the 60 kd protein at 21 days post-treatment with PAH (60 kd oncofetal protein [2]): 0.0 units

Compound: Cc1c2ccccc2c(C)c2c1ccc1ccc(F)cc12 [2-Fluoro-7,12-dimethylbenz[a]anthracene]
- Plasma concentration of the 60 kd protein at 21 days post-treatment with PAH (60 kd oncofetal protein [2]): 0.0

Compound: c1ccc2cc3ccccc3cc2c1 [Anthracene]
- Plasma concentration of the 60 kd protein at 21 days post-treatment with PAH (60 kd oncofetal protein [2]): 0.0

Compound: c1ccc2c(c1)cc1ccc3cccc4ccc2c1c34 [Benzo[a]pyrene]
- dose excreted in bile ([4]; 6 h): ~60%
- biliary metabolites being glucuronides [4]: 40%
- Treatment -I: total concentration of 60 kd factor induced by the carcinogen (60 kd oncofetal protein [2]): 7.73
- Plasma concentration of the 60 kd protein at 21 days post-treatment with PAH (60 kd oncofetal protein [2]): 7.73
- overall inhibition of PAH-mediated carcinogenesis, as inhibition of 60 kd oncofetal protein induction (60 kd oncofetal protein [3]): 75%

Compound: C=CCc1ccc2c(c1)OCO2 [Safrole, safrole]
- Treatment -I: total concentration of 60 kd factor induced by the carcinogen (60 kd oncofetal protein [2]): 5.90

Compound: CC(=O)Nc1ccc2c(c1)Cc1ccccc1-2 [2-Acetyalaminofluorine, 2-acetylaminofluorene]
- Treatment -I: total concentration of 60 kd factor induced by the carcinogen (60 kd oncofetal protein [2]): 5.11

Compound: c1cc2ccc3cccc4ccc(c1)c2c34 [Pyrene]
- Plasma concentration of the 60 kd protein at 21 days post-treatment with PAH (60 kd oncofetal protein [2]): 0.0

Compound: CCCCN(CCCC)N=O [N--Nitrosodibutylamine, N-nitroso-N,N-dibutylamine]
- Treatment -I: total concentration of 60 kd factor induced by the carcinogen (60 kd oncofetal protein [2]): 5.44

Compound: CCN(N=O)C(N)=O [N--Nitrosoethylurea, N-nitroso-N-ethylurea]
- Treatment -I: total concentration of 60 kd factor induced by the carcinogen (60 kd oncofetal protein [2]): 4.50

Compound: O=C(O)[C@@H](O)[C@@H](O)[C@H](O)[C@@H](O)C(=O)O [glucarate]
- fraction of glucarate converted to GL [5]: approximately one-third

Compound: Nc1ccc2ccccc2c1 [2-Naphthylamine, 2-naphthylamine]
- Treatment -I: total concentration of 60 kd factor induced by the carcinogen (60 kd oncofetal protein [2]): 3.29
